According to patent US8507472B2 (priority 2010, dated 2013):
“And” between values parts separate entries of the source, which are not always exact repeats. Equal entries are not always repeated. Where two headings read alike, the source gives them in different places.

What was measured:
[1] = test system: Leptosphaeria nodorum; test: Leptosphaeria nodorum test (wheat)/protective; assay type: in vivo
Procedure, shortened: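 Young wheat plants were sprayed protectively, then inoculated 1 day later with L. nodorum spores and held 48 h at 100% humidity and 22° C. They were then kept in a greenhouse at 90% humidity and 22° C. Efficacy was scored 7-9 days post-inoculation, where 0% equals control and 100% means no infection.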

[2] = test system: Septoria tritici; test: Septoria tritici test (wheat)/protective; assay type: in vivo
Experimental: (§1) Solvent: 49 parts by weight of N,N-dimethylacetamide
(§2) Emulsifier: 1 part by weight of alkylaryl polyglycol ether
To produce a suitable preparation of active compound, 1 part by weight of active compound is mixed with the stated amount of solvent and emulsifier, and the concentrate is diluted with water to the desired concentration.
To test for protective activity, young plants are sprayed with the active compound preparation at the stated application rate. After the spray coating has dried on, the plants are sprayed with a spore suspension of Septoria tritici. The plants remain in an incubation cabin at 20° C. and 100% relative atmospheric humidity for 48 hours. The plants are then placed under a translucent hood at 15° C. and 100% relative atmospheric humidity for a further 60 hours.
The plants are placed in a greenhouse at a temperature of about 15° C. and a relative atmospheric humidity of 80%.
Evaluation is carried out 21 days after the inoculation. 0% means an efficacy which corresponds to that of the control, whereas an efficacy of 100% means that no infection is observed.

[3] = test system: Alternaria solani; test: Alternaria test (tomato)/protective; assay type: in vivo
Procedure, shortened: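 Treatment was protective: spray application at the stated rate came one day before spore inoculation. Incubation was 24 h at 22 °C and 100% humidity, then 20 °C and 96% humidity. Infection was rated at day 7 as % efficacy against the control, with 100% meaning no disease.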

[4] = test system: Rhizoctonia solani; test: Rhizoctonia test (rice)/protective; assay type: in vivo; conditions: 250 ppm active compound, protective, evaluation 4 days after inoculation
Experimental: Solvent: 28.5 parts by weight of acetone
Emulsifier: 1.5 parts by weight of alkylaryl polyglycol ether
To produce a suitable preparation of active compound, 1 part by weight of active compound is mixed with the stated amount of solvent, and the concentrate is diluted with water and the stated amount of emulsifier to the desired concentration.
To test for protective activity, young rice plants are sprayed with the active compound preparation at the stated application rate. 1 day after the treatment, the plants are inoculated with hyphae of Rhizoctonia solani. The plants are then placed in a greenhouse at 100% relative atmospheric humidity and 25° C.
Evaluation is carried out 4 days after the inoculation. 0% means an efficacy which corresponds to that of the control, whereas an efficacy of 100% means that no infection is observed.

[5] = test system: Cochliobolus miyabeanus; test: Cochliobolus test (rice)/protective; assay type: in vivo; conditions: 250 ppm active compound, protective, evaluation 4 days after inoculation
[6] = test system: Sphaerotheca fuliginea; test: Sphaerotheca test (cucumber)/protective; assay type: in vivo
Procedure, shortened: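 Infection was rated 7 days after spore inoculation as % efficacy (0% = control level, 100% = no disease). Inoculation followed 1 day after preventive spray of young cucumbers with compound formulated in N,N-dimethylformamide plus emulsifier and diluted with water; plants were held at 23 °C and 70% relative humidity.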

[7] = test system: Puccinia triticina; test: Puccinia triticina test (wheat)/protective; assay type: in vivo
Experimental: Solvent: 49 parts by weight of […]
as §2
(§3) To produce a suitable preparation of active compound, 1 part by weight of active compound is mixed with the stated amounts of solvent and emulsifier, and the concentrate is diluted with water to the desired concentration.
(§4) To test for protective activity, young plants are sprayed with the active compound preparation at the stated application rate.
After the spray coating has dried on, the plants are sprayed with spores of a spore suspension of Puccinia triticina. The plants remain in an incubation cabin at 20° C. and 100% relative atmospheric humidity for 48 hours.
The plants are placed in greenhouse at a temperature of about 20° C. and a relative atmospheric humidity of about 80%.
Evaluation is carried out 8 days after the inoculation. 0% means an efficacy which corresponds to that of the control, whereas an efficacy of 100% means that no infection is observed.

[8] = test system: Pyricularia oryzae; conditions: in vivo
[9] = test system: Pyrenophora teres; test: Pyrenophora teres test (barley)/protective; assay type: in vivo
Procedure, shortened: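 Efficacy, read 7-9 days after spore inoculation, runs from 0% (equal to untreated control) to 100% (no infection). Barley sprayed with water-diluted DMF/emulsifier formulation was inoculated one day later, incubated 48 h at 22° C. and 100% rel. humidity, then held at 20° C. and 80% humidity.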

[10] = test system: Botrytis cinerea; test: Botrytis test (bean)/protective; assay type: in vivo; conditions: 100 ppm active compound, protective, evaluation 2 days after inoculation
Procedure, shortened: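 Protective spray test: leaves inoculated with two B. cinerea-colonized agar plugs after the spray dried, then incubated in darkness, ~20° C., 100% relative humidity. Formulation was acetone/dimethylacetamide with emulsifier, water-diluted. Lesion size rated 2 days post-inoculation as efficacy (0% matching control, 100% infection-free).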

[11] = test system: Fusarium graminearum; assay type: in vivo
[12] = test system: Venturia inaequalis; test: Venturia test (apple)/protective; assay type: in vivo; conditions: 100 ppm active compound, protective, evaluation 10 days after inoculation
Procedure, shortened: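 Efficacy read 10 days after inoculation, where 100% is no infection and 0% matches untreated control. Plants kept 1 day at ~20° C and 100% relative humidity after conidia inoculation, then ~21° C and ~90% humidity; inoculation followed drying of a protective spray of compound formulated in acetone/dimethylacetamide plus emulsifier and diluted with water.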

[13] = test system: Fusarium nivale (var. majus); test: Fusarium nivale (var. majus) test (wheat)/protective; assay type: in vivo; conditions: 1000 ppm active compound, protective, evaluation 5 days after inoculation
Experimental: as §1, §2, §3, §4
After the spray coating has dried on, the plants are sprayed with spores of a spore suspension of Fusarium nivale (var. majus).
The plants are placed in a greenhouse chamber under a translucent incubation hood at 10° C. and 100% relative atmospheric humidity.
Evaluation is carried out 5 days after the inoculation. 0% means an efficacy which corresponds to that of the control, whereas an efficacy of 100% means that no infection is observed.

[14] = test system: Phytophthora infestans; assay type: in vivo
[15] = test system: DON/AcDON production; test: microbe, parasite or virus in culture; assay type: cell-based, Fusarium graminearum; conditions: 7 days at 28° C.
[16] = test system: Fusarium graminearum; test: microbe, parasite or virus in culture; assay type: cell-based
[17] = test system: Uromyces appendiculatus; test: Uromyces test (bean)/protective; assay type: in vivo
Procedure, shortened: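 Young bean plants sprayed with compound formulated in acetone/dimethylacetamide with emulsifier, inoculated with Uromyces appendiculatus spores after drying, held 1 day at ~20 °C and 100% humidity, then greenhouse ~21 °C, ~90% humidity. Efficacy scored 10 days post-inoculation, 0% = untreated control, 100% = no infection.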

[18] = log P determination by HPLC retention times (alkan-2-one calibration)
[19] = test system: Gibberella zeae; conditions: in vivo
[20] = 500 ppm active compound, tomato, protective, evaluation 7 days after inoculation

Row | SMILES | efficacy in % ([1]; in vivo) | efficacy in % ([2]; in vivo) | efficacy in % ([3]; in vivo) | efficacy in % [4] | efficacy in % [5] | efficacy in % ([6]; in vivo) | efficacy in % ([7]; in vivo) | efficacy in % [8] | efficacy in % ([9]; in vivo) | efficacy in % [10] | efficacy in % ([11]; in vivo) | efficacy in % [12] | efficacy in % [13] | efficacy in % ([14]; in vivo) | % inhibition of DON/AcDON at 50 μM [15] | % inhibition of the fungal growth of Fusarium graminearum at 50 μM [16] | efficacy in % ([17]; in vivo) | other results
1 | CC(=O)Nc1cc(-c2c(-c3ccccc3)nn3c2CCCC3)ccn1 [Example 19] | 95% | 100% | 100% | 100% | 96% | 98% | 100% and 95% | 92% | 100% | 99% | 100% | 93% | 100% | 100% | 100% | 100% | 94% | 
2 | O=C(Nc1cc(-c2c(-c3ccc(F)cc3)nn3c2CCCC3)ccn1)C1CC1 [Example 20] | 95% |  | 100% | 100% | 96% | 100% | 100% | 92% | 100% | 98% | 94% | 99% | 100% | 100% | 100% | 95% | 94% | 
3 | O=C(Nc1cc(-c2c(-c3ccccc3)nn3c2CCCC3)ccn1)C1CC1 [Example 21] | 95% | 100% | 100% | 100% | 96% | 100% | 95% | 98% | 100% | 98% | 100% | 99% | 100% | 90% | 100% | 97% | 94% | 
4 | COC(=O)Nc1cc(-c2c(-c3ccc(F)cc3)nn3c2CCCC3)ccn1 [Example 26, Methyl{4-[2-(4-fluorophenyl)-4,5,6,7-tetrahydropyrazolo[1,5-a]pyridin-3-yl]-pyridin-2-yl}carbamate] |  |  |  |  |  |  |  |  |  | 93% |  | 93% | 86% |  |  |  |  | efficacy in % ([1]; 500 ppm active compound, wheat, protective, evaluation 7-9 days after inoculation): 80%; efficacy in % ([2]; 1000 ppm active compound, wheat, protective, evaluation 21 days after inoculation): 86%; efficacy in % [3, 20]: 100%; efficacy in % ([6]; 500 ppm active compound, cucumber, protective, evaluation 7 days after inoculation): 98%; efficacy in % ([7]; 1000 ppm active compound, wheat, protective, evaluation 8 days after inoculation): 100%; efficacy in % ([9]; 500 ppm active compound, barley, protective, evaluation 7-9 days after inoculation): 95%; efficacy in % ([11]; 1000 ppm active compound, barley, protective, evaluation 5 days after inoculation): 88%; chromatographic logP ([18]; log P(HCOOH), HCOOH, preparation examples in the text): 2.11; chromatographic logP ([18]; log P, values marked [a] in Table 1): 2.11; chromatographic logP ([18]; log P, values marked [b] in Table 1): 2.56; efficacy in % [14, 20]: 95%; inhibition at 50 µM ([15]; Fusarium graminearum, 168 h): 98%; inhibition at 50 µM ([16]; Fusarium graminearum, 72 h, read-out: % inhibition of the fungal growth of Fusarium graminearum at 50 μM): 57%; efficacy in % ([17]; 100 ppm active compound, bean, protective, evaluation 10 days after inoculation): 94%
5 | CC(C)C(=O)Nc1cc(-c2c(-c3ccc(F)cc3)nn3c2CCCC3)ccn1 [Example 28] | 90% | 100% | 100% | 100% | 95% | 100% | 100% | 90% | 100% | 95% | 100% | 100% | 100% | 95% | 99% | 100% | 95% | efficacy in % [19]: 85%
6 | CC(C)CC(=O)Nc1cc(-c2c(-c3ccc(F)cc3)nn3c2CCCC3)ccn1 [Example 30] | 90% | 100% | 100% | 100% | 96% | 95% | 88% | 94% | 100% | 100% | 88% | 99% | 86% | 80% | 99% | 88% | 95% | 
7 | CC(C)C(=O)Nc1cc(-c2c(-c3ccsc3)nn3c2CCCC3)ccn1 [Example 63] | 94% | 100% | 100% |  |  | 93% | 86% |  | 95% | 94% | 83% | 99% | 83% | 95% | 100% | 100% | 75% | 
8 | O=C(Nc1cc(-c2c(-c3ccsc3)nn3c2CCCC3)ccn1)C1CC1 [Example 65] | 94% | 90% | 100% |  |  | 100% | 86% |  | 95% | 97% | 83% | 96% | 100% | 90% | 100% | 100% | 95% | 
